# Experimental data taken from PubChem BioAssay (NCI).
#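 Tested at 5 concentrations; 48 h exposure; 96-well plates; endpoints linearly interpolated, else capped at highest concentration. GI50 = concentration required for 50% inhibition of growth. TGI denotes the concentration required for complete inhibition of growth.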
# Key:
# Assay in all cases: NCI anticancer screen, dose series, 48 h
# [1] = test system: HOP-92 NSCLC
# [2] = test system: RPMI-8226 leukemia
# [3] = test system: SW-620 colon
# [4] = test system: MOLT-4 leukemia
# [5] = test system: HS 578T breast
# [6] = test system: SF-268 CNS
# [7] = test system: SF-539 CNS
# [8] = test system: MDA-MB-231 breast
# [9] = test system: NCI-H23 lung
# [10] = test system: HT29 colon
Compound,TGI [1],TGI [2],TGI [3],TGI [4],TGI [5],TGI [6],TGI [7],TGI [8],TGI [9],TGI [10],GI50 [1],GI50 [2],GI50 [3],GI50 [4],GI50 [5],GI50 [6],GI50 [7],GI50 [8],GI50 [9],GI50 [10]
O=C(O)C1C2C=CC(O2)C1C(=O)NCc1ccccn1 (stereo not drawn),> 100 µM,> 100 µM,> 100 µM,> 100 µM,> 100 µM,> 100 µM,> 100 µM,> 100 µM,> 100 µM,> 100 µM,–,–,–,–,–,–,–,–,–,–
CCN(CC)c1ccc2c(c1)OC(N)=C(C#N)C2c1cc(OC)c2c(c1)OCO2 (stereo not drawn),3.58 µM,2.51 µM,> 48.9 µM,3.55 µM,0.409 µM,3.03 µM,0.0806 µM,2.73 µM,14.5 µM,0.309 µM,0.107 µM,0.0474 µM,0.0354 µM,0.0497 µM,0.0167 µM,0.06 µM,0.0271 µM,0.0557 µM,0.0359 µM,0.0317 µM
COc1ccc(-n2cc(-c3cc(OC)c(OC)c(OC)c3)c(C(=O)C(F)(F)F)c2C)cc1,21.5 µM,> 100 µM,> 100 µM,> 100 µM,> 100 µM,> 100 µM,> 100 µM,> 100 µM,> 100 µM,> 100 µM,2.39 µM,4.53 µM,> 100 µM,6.02 µM,53.1 µM,99.5 µM,> 100 µM,> 100 µM,8.53 µM,9.75 µM
C=C1C(=O)O[C@@H]2C[C@@H]1CC/C(C)=C/CC/C(C)=C/CC[C@@]2(C)O,19.8 µM,5.09 µM,52.5 µM,18 µM,72.4 µM,35.6 µM,42.5 µM,31.8 µM,16.2 µM,> 100 µM,3.96 µM,2.09 µM,25.3 µM,3.72 µM,28.5 µM,16.3 µM,22.3 µM,8.56 µM,4.14 µM,31 µM
CCCCCCNC(=O)c1cc(NCc2cc(O)ccc2O)ccc1O,5.03 µM,6.47 µM,33.1 µM,13.4 µM,> 100 µM,18.1 µM,6.06 µM,10.4 µM,33.1 µM,44.3 µM,1.66 µM,0.371 µM,8.75 µM,1.2 µM,15.1 µM,3.79 µM,1.91 µM,2.78 µM,13.1 µM,21.6 µM
C=COCCCOc1ccccc1,> 100 µM,> 100 µM,> 100 µM,> 100 µM,> 100 µM,> 100 µM,> 100 µM,> 100 µM,> 100 µM,> 100 µM,> 100 µM,–,–,–,> 100 µM,–,–,> 100 µM,–,–
Clc1nc2ccccc2nc1CI,6.82 µM,21.9 µM,6.87 µM,12.2 µM,77.6 µM,17.9 µM,6.27 µM,9.08 µM,25.3 µM,13.5 µM,1.81 µM,4.33 µM,2.57 µM,1.75 µM,12.7 µM,5.23 µM,2.34 µM,3.14 µM,6.38 µM,3.93 µM
